Laboratory results as given in ChEMBL document CHEMBL3871297, “Squarate-based carbocyclic nucleosides: Syntheses, computational analyses and anticancer/antiviral evaluation” (2017).

Legend:
Type in all cases: functional
[1] = Cytotoxicity against human COLO205 cells assessed as cell growth at 10 uM after 2 days by SRB assay relative to control; details: COLO 205, 48 h, read-out: Activity
[2] = Cytotoxicity against human UO31 cells assessed as cell growth at 10 uM after 2 days by SRB assay relative to control; details: UO-31, 48 h, read-out: Activity
[3] = Cytotoxicity against human KM12 cells assessed as cell growth at 10 uM after 2 days by SRB assay relative to control; details: KM12, 48 h, read-out: Activity
[4] = Cytotoxicity against human TK10 cells assessed as cell growth at 10 uM after 2 days by SRB assay relative to control; details: TK-10, 48 h, read-out: Activity
[5] = Cytotoxicity against human NCI-H226 cells assessed as cell growth at 10 uM after 2 days by SRB assay relative to control; details: NCI-H226, 48 h, read-out: Activity
[6] = Cytotoxicity against human CCRF-CEM cells assessed as cell growth at 10 uM after 2 days by SRB assay relative to control; details: 48 h, read-out: Activity
[7] = Cytotoxicity against human UACC257 cells assessed as cell growth at 10 uM after 2 days by SRB assay relative to control; details: UACC-257, 48 h, read-out: Activity
[8] = Cytotoxicity against human SKOV3 cells assessed as cell growth at 10 uM after 2 days by SRB assay relative to control; details: SK-OV-3, 48 h, read-out: Activity
[9] = Cytotoxicity against human 786-0 cells assessed as cell growth at 10 uM after 2 days by SRB assay relative to control; details: 786-0, 48 h, read-out: Activity
[10] = Cytotoxicity against human SN12C cells assessed as cell growth at 10 uM after 2 days by SRB assay relative to control; details: 48 h, read-out: Activity
[11] = Cytotoxicity against human HT-29 cells assessed as cell growth at 10 uM after 2 days by SRB assay relative to control; details: HT-29, 48 h, read-out: Activity
[12] = Cytotoxicity against human HCT116 cells assessed as cell growth at 10 uM after 2 days by SRB assay relative to control; details: HCT-116, 48 h, read-out: Activity
[13] = Cytotoxicity against human NCI-H322M cells assessed as cell growth at 10 uM after 2 days by SRB assay relative to control; details: 48 h, read-out: Activity
[14] = Cytotoxicity against human NCI-H460 cells assessed as cell growth at 10 uM after 2 days by SRB assay relative to control; details: NCI-H460, 48 h, read-out: Activity
[15] = Cytotoxicity against human IGROV1 cells assessed as cell growth at 10 uM after 2 days by SRB assay relative to control; details: IGROV-1, 48 h, read-out: Activity
[16] = Cytotoxicity against human Hs 578T cells assessed as cell growth at 10 uM after 2 days by SRB assay relative to control; details: 48 h, read-out: Activity
[17] = Cytotoxicity against human MCF7 cells assessed as cell growth at 10 uM after 2 days by SRB assay relative to control; details: MCF7, 48 h, read-out: Activity
[18] = Cytotoxicity against human SF539 cells assessed as cell growth at 10 uM after 2 days by SRB assay relative to control; details: SF-539, 48 h, read-out: Activity
[19] = Cytotoxicity against human A549 cells assessed as cell growth at 10 uM after 2 days by SRB assay relative to control; details: A549, 48 h, read-out: Activity
[20] = Cytotoxicity against human RXF393 cells assessed as cell growth at 10 uM after 2 days by SRB assay relative to control; details: RXF 393, 48 h, read-out: Activity
[21] = Cytotoxicity against human UACC62 cells assessed as cell growth at 10 uM after 2 days by SRB assay relative to control; details: UACC-62, 48 h, read-out: Activity
[22] = Cytotoxicity against human T47D cells assessed as cell growth at 10 uM after 2 days by SRB assay relative to control; details: 48 h, read-out: Activity
[23] = Cytotoxicity against human NCI-H23 cells assessed as cell growth at 10 uM after 2 days by SRB assay relative to control; details: NCI-H23, 48 h, read-out: Activity
[24] = Cytotoxicity against human MALME-3M cells assessed as cell growth at 10 uM after 2 days by SRB assay relative to control; details: 48 h, read-out: Activity
[25] = Cytotoxicity against human NCI-H522 cells assessed as cell growth at 10 uM after 2 days by SRB assay relative to control; details: NCI-H522, 48 h, read-out: Activity
[26] = Cytotoxicity against human HCC2998 cells assessed as cell growth at 10 uM after 2 days by SRB assay relative to control; details: HCC 2998, 48 h, read-out: Activity
[27] = Cytotoxicity against human PC3 cells assessed as cell growth at 10 uM after 2 days by SRB assay relative to control; details: PC-3, 48 h, read-out: Activity
[28] = Cytotoxicity against human U251 cells assessed as cell growth at 10 uM after 2 days by SRB assay relative to control; details: U-251, 48 h, read-out: Activity
[29] = Cytotoxicity against human SNB75 cells assessed as cell growth at 10 uM after 2 days by SRB assay relative to control; details: SNB-75, 48 h, read-out: Activity
[30] = Cytotoxicity against human SW620 cells assessed as cell growth at 10 uM after 2 days by SRB assay relative to control; details: SW-620, 48 h, read-out: Activity
[31] = Cytotoxicity against human MDA-MB-231 cells assessed as cell growth at 10 uM after 2 days by SRB assay relative to control; details: MDA-MB-231, 48 h, read-out: Activity
[32] = Cytotoxicity against human SNB19 cells assessed as cell growth at 10 uM after 2 days by SRB assay relative to control; details: SNB-19, 48 h, read-out: Activity
[33] = Cytotoxicity against human ACHN cells assessed as cell growth at 10 uM after 2 days by SRB assay relative to control; details: 48 h, read-out: Activity
[34] = Cytotoxicity against human SF295 cells assessed as cell growth at 10 uM after 2 days by SRB assay relative to control; details: SF-295, 48 h, read-out: Activity
[35] = Cytotoxicity against human NCI/ADR-RES cells assessed as cell growth at 10 uM after 2 days by SRB assay relative to control; details: 48 h, read-out: Activity
[36] = Cytotoxicity against human HOP62 cells assessed as cell growth at 10 uM after 2 days by SRB assay relative to control; details: HOP-62, 48 h, read-out: Activity
[37] = Cytotoxicity against human OVCAR5 cells assessed as cell growth at 10 uM after 2 days by SRB assay relative to control; details: OVCAR-5, 48 h, read-out: Activity
[38] = Cytotoxicity against human SK-MEL-28 cells assessed as cell growth at 10 uM after 2 days by SRB assay relative to control; details: SK-MEL-28, 48 h, read-out: Activity

SMILES | growth at 10 µM [1] [%] | growth at 10 µM [2] [%] | growth at 10 µM [3] [%] | growth at 10 µM [4] [%] | growth at 10 µM [5] [%] | growth at 10 µM [6] [%] | growth at 10 µM [7] [%] | growth at 10 µM [8] [%] | growth at 10 µM [9] [%] | growth at 10 µM [10] [%] | growth at 10 µM [11] [%] | growth at 10 µM [12] [%] | growth at 10 µM [13] [%] | growth at 10 µM [14] [%] | growth at 10 µM [15] [%] | growth at 10 µM [16] [%] | growth at 10 µM [17] [%] | growth at 10 µM [18] [%] | growth at 10 µM [19] [%] | growth at 10 µM [20] [%] | also measured
COc1c(N[C@H]2C=C[C@@H](CO)C2)c(=O)c1=O | 141 | 88.3 | 87.7 | 105 | 105 | 108 | 89 | 110 | 98.5 | 112 | 113 | 95.7 | 108 | 105 | 93 | 114 | 94.2 | 101 | 97.8 | 126 | growth at 10 µM [21]: 101%; growth at 10 µM [22]: 106%; growth at 10 µM [23]: 108%; growth at 10 µM [24]: 109%; growth at 10 µM [25]: 86.5%; growth at 10 µM [26]: 107%; growth at 10 µM [27]: 101%; growth at 10 µM [28]: 103%; growth at 10 µM [29]: 107%; growth at 10 µM [30]: 105%; growth at 10 µM [31]: 110%; growth at 10 µM [32]: 106%; growth at 10 µM [33]: 104%; growth at 10 µM [34]: 118%; growth at 10 µM [35]: 107%; growth at 10 µM [36]: 96%; growth at 10 µM [37]: 100%; growth at 10 µM [38]: 125%
O=c1c(O)c(N[C@H]2C=C[C@@H](CO)C2)c1=O | 134 | 103 | 116 | 132 | 157 | 116 | 100 | 109 | 102 | 120 | 105 | 108 | 120 | 114 | 111 | 146 | 107 | 114 | 108 | 166 | growth at 10 µM [21]: 118%; growth at 10 µM [22]: 107%; growth at 10 µM [23]: 107%; growth at 10 µM [24]: 115%; growth at 10 µM [25]: 91.6%; growth at 10 µM [26]: 106%; growth at 10 µM [27]: 110%; growth at 10 µM [28]: 112%; growth at 10 µM [29]: 103%; growth at 10 µM [30]: 112%; growth at 10 µM [31]: 150%; growth at 10 µM [32]: 105%; growth at 10 µM [33]: 108%; growth at 10 µM [34]: 73.5%; growth at 10 µM [35]: 116%; growth at 10 µM [36]: 101%; growth at 10 µM [37]: 108%; growth at 10 µM [38]: 140%
Nc1c(N[C@H]2C=C[C@@H](CO)C2)c(=O)c1=O | 121 | 84.6 | 122 | 115 | 107 | 89.3 | 97.7 | 112 | 106 | 105 | 110 | 108 | 106 | 104 | 96.2 | 129 | 101 | 98.3 | 97.9 | 143 | growth at 10 µM [21]: 98.3%; growth at 10 µM [22]: 105%; growth at 10 µM [23]: 111%; growth at 10 µM [24]: 100%; growth at 10 µM [25]: 90.1%; growth at 10 µM [26]: 107%; growth at 10 µM [27]: 103%; growth at 10 µM [28]: 103%; growth at 10 µM [29]: 111%; growth at 10 µM [30]: 105%; growth at 10 µM [31]: 113%; growth at 10 µM [32]: 110%; growth at 10 µM [33]: 103%; growth at 10 µM [34]: 128%; growth at 10 µM [35]: 108%; growth at 10 µM [36]: 96.4%; growth at 10 µM [37]: 106%; growth at 10 µM [38]: 128%
